Literature values as cited in patent US20150290272A1, “PHARMACEUTICAL COMPOSITION FOR PREVENTING/TREATING BRAIN INJURY AND ENHANCING RECOVERY OF SEQUELAE AND MANUFACTURE THEREOF” (PhytoHealth Corporation, priority 2014, published 2015).

System: acute ischemic stroke

For “rtPA: thrombolysis agent recombinant tissue plasminogen activator (rt-PA) (Actilyse) for acute ischemic stroke”, the “increase in the number of people living without disability” value (at three to six months, 2014 review) is listed as 5%, the “overall benefit with respect to living without disability” value (given within three hours of symptom onset) is listed as 10% and the “increased risk of death” value (in the short term, 2014 review) is listed as 2%. The “people with large strokes who developed substantial brain hemorrhage as a complication” value (in vivo) was 6.4%.
